How the values were obtained:
[1] = test system: human prostate cancer cells DU145; experiment: Cytotoxicity assay (PrestoBlue, resazurin); format: cell-based; settings: 10 and 100 μM, 48 h
Protocol: (§1) Synthesized substances were dissolved in DMSO (Sigma-Aldrich) to obtain 20 mM stock solutions and kept in 4 °C prior to use.
(§2) The human prostate cancer cells DU145 and mouse melanoma cells B16F10 were maintained in humidified incubator containing 5 % CO2 at 37 °C. DU145 cells were cultured in RPMI medium and B16F10 were cultured in DMEM medium. The media were supplemented with 10 % of fetal calf serum (FCS) and 1 % of antibiotic antimycotic (Sigma). Cells were passaged every 2–3 days. All cell lines were obtained from ATCC (The Global Bioresource Center).
(§3) PrestoBlue (test based on resazurin) was used for analysis cytotoxicity/cytostatic effects. DU145 and B16F10 cells were seeded on 96-well plate (10 × 10^3 cells per well). Examined substances were added to culture after overnight cell incubation. Two concentrations of substances (10 and 100 μM) were used. Control cells and control cells with solvent (DMSO) were applied. After 48 h PrestoBlue test was performed.

[2] = test system: mouse melanoma cells B16F10; experiment: Cytotoxicity assay (PrestoBlue, resazurin); format: cell-based; settings: B16-F10 (melanoma), 10 and 100 μM, 48 h
Protocol: as §1, §2, §3

[3] = Lipophilicity by reversed-phase TLC on RP-18 WF254s plates with standardization; settings: for φ 0 (intercept of the trend line with abscissa axis): molar fraction for which lipophilicity equals 0
leukemia HL-60 (TB) = test system: leukemia HL-60 (TB); parameters: method as in PMID 21439691; settings: cited from earlier work
leukemia K-562 = test system: leukemia K-562; parameters: method as in PMID 21439691; settings: cited from earlier work
leukemia RPMI-8226 = test system: leukemia RPMI-8226; parameters: method as in PMID 21439691; settings: cited from earlier work
[4] = test system: non-small-cell lung cancer NCI-H522; parameters: method as in PMID 21439691; settings: cited from earlier work
prostate cancer PC-3 = test system: prostate cancer PC-3; parameters: method as in PMID 21439691; settings: cited from earlier work
sarcoma 180 = test system: sarcoma 180; parameters: method as in doi:10.1021/jo00316a018; settings: cited from earlier work
Lewis lung carcinoma = test system: Lewis lung carcinoma; parameters: method as in doi:10.1021/jo00316a018; settings: cited from earlier work
P-388 lymphotic leukemia = test system: P-388 lymphotic leukemia; parameters: method as in doi:10.1021/jo00316a018; settings: cited from earlier work
[5] = test system: Walker 256 carcinosarcoma; parameters: method as in doi:10.1021/jo00316a018; settings: cited from earlier work

| Structure (SMILES) | S (slope of the trend line RM vs φ) ([3]; acetonitrile/water) | φ 0 (intercept of the trend line with abscissa axis) ([3]; acetonitrile/water) | S (slope of the trend line RM vs φ) ([3]; dioxane/water) | φ 0 (intercept of the trend line with abscissa axis) ([3]; dioxane/water) | S (slope of the trend line RM vs φ) ([3]; isopropanol/water) | φ 0 (intercept of the trend line with abscissa axis) ([3]; isopropanol/water) | S (slope of the trend line RM vs φ) ([3]; methanol/water) | φ 0 (intercept of the trend line with abscissa axis) ([3]; methanol/water) | melting point [°C] | cytotoxicity in primary screen [1] | cytotoxicity in primary screen [2] | growth inhibition (leukemia HL-60 (TB)) | growth inhibition (leukemia K-562) | growth inhibition (leukemia RPMI-8226) | growth inhibition [4] | growth inhibition (prostate cancer PC-3) | inhibitory activity (sarcoma 180) | inhibitory activity (Lewis lung carcinoma) | inhibitory activity (P-388 lymphotic leukemia) | inhibitory activity [5] |
| --- | --- | --- | --- | --- | --- | --- | --- | --- | --- | --- | --- | --- | --- | --- | --- | --- | --- | --- | --- | --- |
| CC(=O)c1c(C)cc2oc(=O)cc(C)c2c1O [Compound 3, 6-acetyl-5-hydroxy-4,7-dimethylcoumarin] | 3.706 | 0.519 | 4.1018 | 0.55 | 3.15 | 0.479 | 3.2113 | 0.754 | – | slightly active | slightly active | – | – | – | – | – | – | – | – | – |
| CC(=O)c1c(OCC#N)ccc2c(C)cc(=O)oc12 [8-Acetyl-7-(cyanomethoxy)-4-methylcoumarin] | – | – | – | – | – | – | – | – | – | – | – | inhibited the growth | inhibited the growth | inhibited the growth | inhibited the growth | inhibited the growth | – | – | – | – |
| C/C(=C\COc1ccc2ccc(=O)oc2c1)C1=CC(=O)C(C)(C)O1 [Geiparvarin] | – | – | – | – | – | – | – | – | – | – | – | – | – | – | – | – | significant inhibitory activity | significant inhibitory activity | significant inhibitory activity | significant inhibitory activity |

The next lines start with results.

| S (slope of the trend line RM vs φ) ([3]; acetonitrile/water) | φ 0 (intercept of the trend line with abscissa axis) ([3]; acetonitrile/water) | S (slope of the trend line RM vs φ) ([3]; dioxane/water) | φ 0 (intercept of the trend line with abscissa axis) ([3]; dioxane/water) | S (slope of the trend line RM vs φ) ([3]; isopropanol/water) | φ 0 (intercept of the trend line with abscissa axis) ([3]; isopropanol/water) | S (slope of the trend line RM vs φ) ([3]; methanol/water) | φ 0 (intercept of the trend line with abscissa axis) ([3]; methanol/water) | melting point [°C] | Structure (SMILES) | cytotoxicity in primary screen [1] | cytotoxicity in primary screen [2] | growth inhibition (leukemia HL-60 (TB)) | growth inhibition (leukemia K-562) | growth inhibition (leukemia RPMI-8226) | growth inhibition [4] | growth inhibition (prostate cancer PC-3) | inhibitory activity (sarcoma 180) | inhibitory activity (Lewis lung carcinoma) | inhibitory activity (P-388 lymphotic leukemia) | inhibitory activity [5] |
| --- | --- | --- | --- | --- | --- | --- | --- | --- | --- | --- | --- | --- | --- | --- | --- | --- | --- | --- | --- | --- |
| 3.2466 | 0.437 | 3.3439 | 0.483 | 2.8574 | 0.445 | 2.746 | 0.675 | – | Cc1cc(O)c2c(C)cc(=O)oc2c1 [Compound 2, 5-hydroxy-4,7-dimethylcoumarin] | slightly active | slightly active | – | – | – | – | – | – | – | – | – |
| 3.3589 | 0.499 | 3.2254 | 0.498 | 2.3947 | 0.434 | 2.677 | 0.669 | 214 to 216 | Cc1cc(OCC#N)c2c(C)cc(=O)oc2c1 [Compound 5, 5-(cyanomethoxy)-4,7-dimethylchromen-2-one] | – | – | – | – | – | – | – | – | – | – | – |
